{"source": "paper PMC12299847", "about": "“Macroalgae-Inspired Brominated Chalcones as Cosmetic Ingredients with the Potential to Target Skin Inflammaging” (Marine Drugs, 2025)", "key": {"[1]": {"test": "NO scavenging potential (SNAP assay)", "type": "biochemical", "settings": "SNAP 300 μM, 3 h; compounds 100 μM (methods) or 7.5 μM (Figure 5)", "procedure": "The SNAP (S-nitroso-N-acetylpenicillamine) assay is a well-established method for assessing the NO scavenging capacity of compounds, offering valuable insights into their potential direct antioxidant and anti-inflammatory properties. In this study, chalcones 1–7 were tested for their ability to capture NO radicals induced by the presence of SNAP at a concentration of 300 μM (Figure 5). […] Instead, these compounds could potentially exert their effects via alternative mechanisms, such as the modulation of iNOS activity or by targeting upstream targets in the inflammatory cascade, such as by the suppression of NF-κB activation, and/or Nrf2 activation, which will deplete co-activators from the iNOS enzyme, thereby reducing iNOS transcription and, consequently, iNOS protein levels and NO production.\nThe ability to scavenge NO was assessed using S-nitroso-N-acetyl-D/L-penicillamine (SNAP) as a source of NO. The production of NO was quantified using the Griess reaction, following a previously described method. […] Absorbance at 550 nm was then measured using a Biotek Synergy HT plate reader (Biotek, CA, USA). The nitrite concentration in the supernatants was determined by comparing the absorbance of each sample to a sodium nitrite standard curve. […]"}, "[2]": {"tested_on": "HaCaT cells transfected with an Nrf2 luciferase reporter construct", "test": "Cell viability (resazurin) in KeratinoSens cells", "type": "cell-based, human", "procedure": "Selected compounds (chalcones 1 and 2), and the positive control, DMF, were dissolved in sterile DMSO. Intermediate dilutions were prepared in culture medium, including the final concentration to be added to the 96-well plate, with a final volume of 200 µL per well. The KeratinoSens™ assay was conducted as previously described. In brief, cells were seeded at a density of 10,000 cells per well in 96-well white opaque plates (Greiner Bio-One GmbH, cat. no. 655083, Kremsmünster, Austria) and incubated for 24 h. The medium was then replaced with fresh medium containing 1% FBS and the test compounds, and cells were incubated for an additional 24 and 48 h. DMF was used as the positive control since it is a known Nrf2 activator. Cell viability was assessed in the same cells using resazurin. After 20 or 44 h of exposure to the test compounds, 50 µM of resazurin solution (in sterile PBS) was added to each well, and the plates were incubated for 4 h at 37 °C, 5% CO2 Following the resazurin incubation, the supernatant was transferred to a transparent 96-well plate, and absorbance was measured at 570 and 620 nm using a Synergy HT multi-mode microplate reader (BioTek, Bad Friedrichshall, Germany). […] Luminescence was then measured using a FLUOstar OMEGA Microplate Reader (BMG Labtech GmbH, Ortenberg, Germany). […]"}}}
{"smiles": "COc1cc(Br)c(/C=C/C(=O)c2cc(OC)c(OC)cc2Br)cc1OC", "note": "[Chalcone 1]", "values": [{"measurement": "NO scavenging activity", "setting": "[1]", "result": "No direct NO scavenging action"}, {"measurement": "effect on cell viability", "setting": "[2]; 24 h, 5 µM and 7.5 µM", "result": "without affecting cell viability"}, {"measurement": "effect on cell viability", "setting": "[2]; 48 h", "result": "decrease in cell viability"}]}
